The source of these data is patent publication US20180186742A1, “PICOLINAMIDES AS FUNGICIDES” (Dow AgroSciences LLC, priority 2017, published 2018).

One test concerns Zymoseptoria tritici. Kind of test: Leaf blotch of wheat (SEPTTR), disease control on wheat seedlings. The format is in vivo. The following applies: for pest or weed control at 100 ppm: high volume application at 100 ppm; for pest or weed control at 121.5 g/ha: low volume application at 121.5 g/H. The method in brief:
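Z. tritici spores were inoculated onto wheat seedlings (Yuma, first leaf emerged) either before or after treatment. Treatment was an automated spray to run-off of acetone/Triton X-100 water solutions, or a track spray of EC formulations with 0.1% Trycol 5941. Plants were held in dew chambers at 20 °C and then a greenhouse at 20 °C. First-leaf severity (0–100%) was converted to percent control against untreated plants.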

Another test deals with Puccinia triticina. Briefly: Wheat brown rust (PUCCRT), disease control on wheat seedlings. The test is classed as in vivo. The following applies: for pest or weed control at 100 ppm: high volume application at 100 ppm; for pest or weed control at 121.5 g/ha: low volume application at 121.5 g/H. The gist of the method:
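Compounds in acetone, diluted with nine volumes of water containing 110 ppm Triton X-100, sprayed to run-off on first-leaf Yuma wheat seedlings; track-spray tests used EC formulations with 0.1% Trycol 5941. Puccinia triticina spores applied before or after treatment. Overnight dark dew room at 22° C, 100% humidity, then greenhouse at 24° C.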

Setting [1] is: 24 h, 1 Day Protectant, read-out: SEPTTR disease control, 1DP, HV activity.
The mark [2] stands for this setting: 72 h, 3 Day Curative, read-out: SEPTTR disease control, 3DC, HV activity.
The mark [3] stands for this setting: 24 h, 1 Day Protectant, read-out: PUCCRT disease control, 1DP, HV activity.
Setting [4] is: 72 h, 3 Day Curative, read-out: PUCCRT disease control, 3DC, HV activity.
[5] abbreviates: 24 h, 1 Day Protectant, read-out: SEPTTR disease control, 1DP, LV activity.
The mark [6] stands for this setting: 72 h, 3 Day Curative, read-out: SEPTTR disease control, 3DC, LV activity.
[7] abbreviates: 24 h, 1 Day Protectant, read-out: PUCCRT disease control, 1DP, LV activity.
Setting [8] is: 72 h, 3 Day Curative, read-out: PUCCRT disease control, 3DC, LV activity.

Molecules are shown by their SMILES. Where two headings read alike, the source gives them in different places.

For the compound `CCC(CC)[C@@H](c1ccccc1)C(C)OC(=O)[C@H](C)NC(=O)c1nccc(OC)c1O` (stereo partly drawn) [Compound 112], the pest or weed control at 100 ppm with Zymoseptoria tritici (setting [1]), in the test on Zymoseptoria tritici (setting [2]), with Puccinia triticina (setting [3]) and in the test with Puccinia triticina (setting [4]) was greater than 80% in each case.

Take `COc1ccnc(C(=O)N[C@@H](C)C(=O)O[C@@H](C)[C@@H](c2ccc(F)cc2C)C2CCCCC2)c1O` [Compound 119]: the pest or weed control at 100 ppm was greater than 80% in the test with Zymoseptoria tritici (setting [1]), greater than 80% in the test with Zymoseptoria tritici (setting [2]), greater than 80% with Puccinia triticina (setting [3]) and less than 80% in the test on Puccinia triticina (setting [4]).

Turning to `COc1ccnc(C(=O)N[C@@H](C)C(=O)O[C@@H](C)[C@H](c2ccccc2F)C(C)C)c1O` [Compound 323], the pest or weed control at 100 ppm is less than 80% in the test with Zymoseptoria tritici (setting [1]), greater than 80% with Zymoseptoria tritici (setting [2]), greater than 80% in the test on Puccinia triticina (setting [3]) and greater than 80% in the test on Puccinia triticina (setting [4]).

In the case of `COc1ccnc(C(=O)N[C@@H](C)C(=O)O[C@@H](C)[C@H](c2ccc(F)cc2)C2CC2)c1OCOC(C)=O` [Compound 171], the pest or weed control at 121.5 g/ha in the test with Zymoseptoria tritici (setting [5]), with Zymoseptoria tritici (setting [6]), in the test with Puccinia triticina (setting [7]) and with Puccinia triticina (setting [8]) was greater than 80% throughout.

For the compound `COc1ccnc(C(=O)N[C@@H](C)C(=O)O[C@@H](C)[C@@H](c2ccccc2)C2CCCC2)c1OC(C)=O` [Compound 161], the pest or weed control at 121.5 g/ha is less than 80% in the test on Zymoseptoria tritici (setting [5]), greater than 80% with Zymoseptoria tritici (setting [6]), greater than 80% in the test with Puccinia triticina (setting [7]) and less than 80% in the test with Puccinia triticina (setting [8]).

As for `CCC(CC)[C@@H](c1ccccc1)C(C)OC(=O)[C@H](C)NC(=O)c1nccc(OC)c1OCOC(C)=O` (stereo partly drawn) [Compound 174], the pest or weed control at 121.5 g/ha in the test with Zymoseptoria tritici (setting [5]), in the test with Zymoseptoria tritici (setting [6]), in the test with Puccinia triticina (setting [7]) and in the test on Puccinia triticina (setting [8]) was greater than 80% in each case.

Turning to `CCC(C)[C@@H](c1ccccc1C)[C@H](C)OC(=O)[C@H](C)NC(=O)c1nccc(OC)c1OC(C)=O` (stereo partly drawn) [Compound 384], the pest or weed control at 121.5 g/ha is greater than 80% with Zymoseptoria tritici (24 h, 1 Day Protectant, wheat leaf blotch, read-out: SEPTTR 1DP disease control, LV activity); greater than 80% with Zymoseptoria tritici (72 h, 3 Day Curative, wheat leaf blotch, read-out: SEPTTR 3DC disease control, LV activity); greater than 80% in the test on Puccinia triticina (24 h, 1 Day Protectant, wheat brown rust, read-out: PUCCRT 1DP disease control, LV activity); greater than 80% with Puccinia triticina (72 h, 3 Day Curative, wheat brown rust, read-out: PUCCRT 3DC disease control, LV activity).

Consider `COc1ccnc(C(=O)N[C@@H](C)C(=O)O[C@@H](C)[C@H](c2ccc(C)cc2)C(C)C)c1OC(C)=O` [Compound 168], for which the pest or weed control at 121.5 g/ha in the test with Zymoseptoria tritici (setting [5]) is less than 80%; with Zymoseptoria tritici (setting [6]) it was less than 80%; with Puccinia triticina (setting [7]) it was greater than 80%; with Puccinia triticina (setting [8]), greater than 80%.

As to `COc1ccnc(C(=O)N[C@@H](C)C(=O)O[C@@H](C)[C@@H](c2ccccc2)C(C)C)c1OC(C)=O` [Compound 160], the pest or weed control at 121.5 g/ha was less than 80% in the test on Zymoseptoria tritici (setting [5]), greater than 80% in the test with Zymoseptoria tritici (setting [6]), greater than 80% in the test with Puccinia triticina (setting [7]) and less than 80% with Puccinia triticina (setting [8]).

Regarding `COc1ccnc(C(=O)N[C@H](C(=O)O[C@@H](C)[C@H](c2ccc(F)cc2C)C(C)C)C(C)C)c1O` [Compound 318], the pest or weed control at 100 ppm is less than 80% in the test with Zymoseptoria tritici (setting [1]), less than 80% in the test on Zymoseptoria tritici (setting [2]), greater than 80% in the test on Puccinia triticina (setting [3]) and greater than 80% in the test on Puccinia triticina (setting [4]).

For the compound `COc1ccnc(C(=O)N[C@@H](CC(C)C)C(=O)O[C@@H](C)[C@H](c2ccc(F)cc2C)C(C)C)c1O` [Compound 320], the pest or weed control at 100 ppm with Zymoseptoria tritici (setting [1]), in the test with Zymoseptoria tritici (setting [2]), in the test with Puccinia triticina (setting [3]) and with Puccinia triticina (setting [4]) was less than 80% each time.

With `COc1cc(F)ccc1[C@H](C1CCCCC1)[C@H](C)OC(=O)[C@H](C)NC(=O)c1nccc(OC)c1O` [Compound 143], the pest or weed control at 100 ppm is greater than 80% in the test on Zymoseptoria tritici (setting [1]), less than 80% in the test with Zymoseptoria tritici (setting [2]), greater than 80% with Puccinia triticina (setting [3]) and greater than 80% in the test with Puccinia triticina (setting [4]).
